Data on 1 substance can be found in paper PMC9555642 (PLoS ONE, 2022).

Data set [1] concerns the target T1, dopamine active transporter (DAT) (Homo sapiens, UniProt Q01959).
T1 construct: purchased Eurofins Pharma Discovery Services
The data set is described as follows: Secondary pharmacology panel (Eurofins). The class given is binding.
Description: (§1) Second pharmacology screening was performed at Eurofins Pharma Discovery Services in a panel of 190 in vitro radioligand binding and enzyme assays covering a diverse set of enzymes, receptors, ion channels, and transporters.

The nature of data set [2]: Secondary pharmacology panel of >190 in vitro radioligand binding and enzyme assays. The conditions noted are these: hits: HDAC5, HDAC7, COX2 and DAT.
Description: as §1
The test system of data set [3] is COPD HBEC ALI cultures. Put plainly: Cytokine release in basolateral supernatants (MSD), TNF challenge. The class given is cell-based, human. The conditions noted are these: 10 μM, TNF 5, 20 and 50 ng/ml, day seven. The method, then:
TEER and permeability were measured after seven days.
To assess cytokines released, basolateral supernatants were collected on day seven and immediately frozen at -80°C until MSD analysis of IL-6, CCL2 and CXCL10. In short, U-PLEX MSD plates (Mesoscale Discovery, Rockville, Maryland, USA) were coated, washed and stored overnight. Standard curves were prepared and added in duplicates on each plate. Supernatants were thawed on ice and added to the plates, which were incubated on an orbital shaker for one hour before sulfo-tagged antibodies were added and incubated for another hour. Plates were washed, read buffer added and read on MESO SECTOR S 600 (Mesoscale Discovery, Rockville, Maryland, USA). Data was plotted as fold change to DMSO control.

Data set [4] concerns healthy HBEC at ALI cultures. The data set is described as follows: TEER in healthy HBEC ALI cultures, TNF challenge. Format: cell-based, human. The conditions noted are these: TNF-challenged healthy HBEC, p = 0.0187.
A further data set deals with T2, hERG (Homo sapiens, UniProt Q12809).
T2 construct: expressed in transfected cells; host or cells: Chinese hamster ovary K1 cell line
T2 sequence (Q12809 whole entry): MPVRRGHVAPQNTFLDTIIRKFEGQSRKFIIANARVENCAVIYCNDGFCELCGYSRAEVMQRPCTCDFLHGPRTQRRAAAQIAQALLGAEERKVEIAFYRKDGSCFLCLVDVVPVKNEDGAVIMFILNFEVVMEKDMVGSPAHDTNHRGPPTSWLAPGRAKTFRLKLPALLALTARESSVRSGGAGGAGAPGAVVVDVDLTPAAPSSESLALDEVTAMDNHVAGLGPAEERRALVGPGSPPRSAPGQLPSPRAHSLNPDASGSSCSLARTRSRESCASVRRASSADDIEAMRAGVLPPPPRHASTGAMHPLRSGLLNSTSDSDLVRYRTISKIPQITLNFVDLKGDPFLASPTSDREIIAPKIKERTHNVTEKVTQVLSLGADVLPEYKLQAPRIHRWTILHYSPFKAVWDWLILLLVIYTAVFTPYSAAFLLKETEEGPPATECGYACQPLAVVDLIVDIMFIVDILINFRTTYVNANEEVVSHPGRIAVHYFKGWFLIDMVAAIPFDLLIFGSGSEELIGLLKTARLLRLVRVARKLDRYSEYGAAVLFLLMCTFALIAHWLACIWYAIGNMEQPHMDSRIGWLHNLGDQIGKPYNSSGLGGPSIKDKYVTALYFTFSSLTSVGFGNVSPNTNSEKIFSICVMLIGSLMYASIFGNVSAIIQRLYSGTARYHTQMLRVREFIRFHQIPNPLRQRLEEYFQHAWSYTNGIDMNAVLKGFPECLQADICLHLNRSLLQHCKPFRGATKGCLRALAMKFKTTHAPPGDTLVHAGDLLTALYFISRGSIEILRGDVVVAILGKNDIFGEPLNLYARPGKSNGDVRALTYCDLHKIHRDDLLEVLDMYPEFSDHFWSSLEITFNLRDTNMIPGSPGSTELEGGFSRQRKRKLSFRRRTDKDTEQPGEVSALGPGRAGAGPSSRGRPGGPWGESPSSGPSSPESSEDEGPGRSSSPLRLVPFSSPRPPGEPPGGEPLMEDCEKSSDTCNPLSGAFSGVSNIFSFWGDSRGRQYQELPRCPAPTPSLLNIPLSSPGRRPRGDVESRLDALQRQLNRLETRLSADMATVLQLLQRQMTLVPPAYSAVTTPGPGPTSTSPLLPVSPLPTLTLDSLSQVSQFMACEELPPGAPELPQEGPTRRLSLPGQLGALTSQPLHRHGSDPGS
Put plainly: Cardiovascular ion channel panel, SyncroPatch 384PE patch clamp. Format: cell-based. The conditions noted are these: CHO K1 cell line, room temperature, 6 point cumulative assay.

For another data set, the target named is T3, HDAC7 (Homo sapiens, UniProt Q8WUI4).
T3 construct: purchased Eurofins Pharma Discovery Services 2610
T3 sequence (Q8WUI4 1-952): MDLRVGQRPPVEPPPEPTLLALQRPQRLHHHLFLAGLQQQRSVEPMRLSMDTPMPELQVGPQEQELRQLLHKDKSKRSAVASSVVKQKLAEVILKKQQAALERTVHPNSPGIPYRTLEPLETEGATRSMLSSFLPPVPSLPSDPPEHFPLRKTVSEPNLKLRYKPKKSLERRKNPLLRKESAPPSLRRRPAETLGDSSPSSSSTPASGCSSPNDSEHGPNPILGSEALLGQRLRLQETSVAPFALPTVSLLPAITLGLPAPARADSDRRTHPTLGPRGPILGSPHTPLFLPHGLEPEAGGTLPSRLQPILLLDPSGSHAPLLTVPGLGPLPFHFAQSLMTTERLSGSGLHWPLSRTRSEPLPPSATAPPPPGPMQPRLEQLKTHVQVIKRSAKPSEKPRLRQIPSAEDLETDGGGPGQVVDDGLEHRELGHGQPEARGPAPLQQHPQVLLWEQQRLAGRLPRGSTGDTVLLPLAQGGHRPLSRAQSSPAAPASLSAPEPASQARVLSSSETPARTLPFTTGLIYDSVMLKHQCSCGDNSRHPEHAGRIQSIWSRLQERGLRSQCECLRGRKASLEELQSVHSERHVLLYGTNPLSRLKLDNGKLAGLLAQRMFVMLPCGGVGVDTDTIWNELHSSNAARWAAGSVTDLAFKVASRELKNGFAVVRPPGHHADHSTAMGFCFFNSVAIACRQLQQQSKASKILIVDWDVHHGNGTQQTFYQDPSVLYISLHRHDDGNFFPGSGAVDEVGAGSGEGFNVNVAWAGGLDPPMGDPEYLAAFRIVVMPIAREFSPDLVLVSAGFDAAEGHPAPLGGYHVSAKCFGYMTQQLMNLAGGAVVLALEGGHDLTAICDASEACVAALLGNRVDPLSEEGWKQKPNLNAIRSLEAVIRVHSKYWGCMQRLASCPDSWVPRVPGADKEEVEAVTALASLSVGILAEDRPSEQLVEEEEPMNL
The data set is described as follows: HDAC enzymatic activity (Eurofins). Format: biochemical. The conditions noted are these: Class IIA; ACY-1083 mean of two separate measurements, Ricolinostat and Tubastatin A one measurement.

Data set [5] is described as follows: Spike test in ALI cell media (stability and binding to plastic and media components). The class given is in vitro ADME. Here is the method:
Compound concentration was then analysed after 18hrs incubation at 37 °C by LC-MSMS (Method DMPK&BAC 001–04).

Data set [6] has as its system COPD HBEC ALI cultures. The data set is described as follows: AB/PAS staining and quantification of cellular features from IHC sections, TNF challenge. The class given is cell-based, human. Here is the method: Eight days post-treatment, HBEC ALI-cultures were fixed in 4% paraformaldehyde for fifteen minutes and washed three times in PBS. Dehydration in ethanol and xylene followed by paraffin (Merck, New Jersey, USA) infiltration was done with a short program for biopsies (1 hour 55 minutes) on a Microm STP 120 Spin Tissue Processor (Thermo Fisher Scientific). Cell layers were embedded in paraffin and 4 μm thick sections were made using a Leica RM2165 microtome (Leica, Wetzlar, Germany). Alcian Blue/Periodic Acid-Schiff (AB/PAS) with Haematoxylin staining were performed using standard protocols on a Leica ST5020. After staining, the sections were dehydrated in ethanol and xylene, mounted with Pertex mounting medium (Histolab, Göteborg, Sweden) and scanned with a Aperio Scanscope slide scanner (Leica Biosystems, Buffalo Grove, USA).
IHC images were analyzed in HALO v3.1 (Indica Labs). For all analyses, images were annotated manually to exclude out of focus and damaged areas, and a random forest classifier was applied to intact areas of the sections to detect epithelial areas. All following analyses were done in epithelial areas only. For goblet cell counting, algorithm CytoNuclear 2.0.9 was used to segment cells based on nuclear staining and categorize them as AB/PAS (mucin) positive and negative cells based on cytoplasmic AB staining. Goblet cell counting was represented as the percentage of AB positive cells of total cells.
To measure epithelial thickness, the apical and basal sides of the epithelium in the sections were manually delineated using a pen annotation tool. Distance between paired apical and basal annotations was measured every 10 μm along the epithelium, and recorded in sequence as epithelial thickness.
To measure intraepithelial and intercellular AB staining, algorithm Area Quantification v2.1.7 was used. Two thresholds were applied to capture AB staining: a lower one to detect all AB staining in both goblet cells and intercellular areas, and a higher one to detect the stronger AB staining inside goblet cells only. Intercellular AB area was calculated by subtracting goblet AB staining (higher threshold) from total AB staining (by lower threshold).

In another data set the target is T4, HDAC9 (Homo sapiens, UniProt Q9UKV0).
T4 construct: purchased Eurofins Pharma Discovery Services 2611
T4 sequence (Q9UKV0 whole entry): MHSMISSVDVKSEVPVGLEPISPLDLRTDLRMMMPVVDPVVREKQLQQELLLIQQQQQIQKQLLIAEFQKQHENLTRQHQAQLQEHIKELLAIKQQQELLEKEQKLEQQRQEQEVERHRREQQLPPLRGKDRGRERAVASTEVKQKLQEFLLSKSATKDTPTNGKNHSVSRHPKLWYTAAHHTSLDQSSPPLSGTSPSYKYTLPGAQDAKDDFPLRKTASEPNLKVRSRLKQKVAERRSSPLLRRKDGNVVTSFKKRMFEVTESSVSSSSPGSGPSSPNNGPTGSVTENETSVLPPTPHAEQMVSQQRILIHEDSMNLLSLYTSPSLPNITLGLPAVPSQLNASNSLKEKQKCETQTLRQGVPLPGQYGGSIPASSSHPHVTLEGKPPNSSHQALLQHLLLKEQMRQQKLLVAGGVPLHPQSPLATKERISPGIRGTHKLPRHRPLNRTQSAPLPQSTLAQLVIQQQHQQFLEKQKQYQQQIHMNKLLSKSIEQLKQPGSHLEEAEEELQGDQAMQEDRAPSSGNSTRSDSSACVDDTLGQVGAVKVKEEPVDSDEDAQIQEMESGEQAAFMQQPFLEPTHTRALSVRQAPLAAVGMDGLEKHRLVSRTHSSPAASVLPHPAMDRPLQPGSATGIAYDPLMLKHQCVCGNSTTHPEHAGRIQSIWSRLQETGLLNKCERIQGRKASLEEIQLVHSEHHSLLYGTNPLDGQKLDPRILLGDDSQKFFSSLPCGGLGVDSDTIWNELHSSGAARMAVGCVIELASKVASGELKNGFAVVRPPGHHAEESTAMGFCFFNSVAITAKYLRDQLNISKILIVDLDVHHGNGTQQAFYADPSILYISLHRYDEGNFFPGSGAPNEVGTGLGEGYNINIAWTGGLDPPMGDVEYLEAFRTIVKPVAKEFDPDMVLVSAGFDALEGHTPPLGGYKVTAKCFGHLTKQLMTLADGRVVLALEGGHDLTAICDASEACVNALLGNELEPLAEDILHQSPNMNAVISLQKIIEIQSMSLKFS
The data set is described as follows: HDAC enzymatic activity (Eurofins). The conditions noted are these: Class IIA; ACY-1083 mean of two separate measurements, Ricolinostat and Tubastatin A one measurement. The class given is biochemical.

The test system of data set [7] is deacetylation of α-tubulin. Further details: method as in PMID 28267067. The conditions noted are these: read-out: cell potency (IC50), inhibition of deacetylation of α-tubulin; cited from earlier work.
Setting [8] is: 10 μM spiked into cell media, 18 hrs.

T1 sequence (Q01959 whole entry, species assumed): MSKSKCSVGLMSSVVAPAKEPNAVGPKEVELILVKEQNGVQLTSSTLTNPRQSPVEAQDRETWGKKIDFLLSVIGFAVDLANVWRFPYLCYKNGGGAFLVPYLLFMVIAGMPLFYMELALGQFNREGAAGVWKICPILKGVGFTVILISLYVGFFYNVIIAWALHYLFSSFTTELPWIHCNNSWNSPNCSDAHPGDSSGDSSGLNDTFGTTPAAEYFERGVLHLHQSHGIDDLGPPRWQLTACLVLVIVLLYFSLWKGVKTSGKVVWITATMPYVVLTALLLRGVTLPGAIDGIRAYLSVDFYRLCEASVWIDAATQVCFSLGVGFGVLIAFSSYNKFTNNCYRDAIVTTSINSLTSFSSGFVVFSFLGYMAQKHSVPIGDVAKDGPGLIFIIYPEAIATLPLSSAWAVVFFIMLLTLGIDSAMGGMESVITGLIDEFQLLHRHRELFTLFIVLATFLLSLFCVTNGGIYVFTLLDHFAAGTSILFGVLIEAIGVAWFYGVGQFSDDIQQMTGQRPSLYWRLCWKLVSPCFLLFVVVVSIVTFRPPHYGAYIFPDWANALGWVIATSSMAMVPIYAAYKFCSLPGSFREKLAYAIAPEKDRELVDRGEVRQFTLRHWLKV

Consider ACY-1083, for which, in [1], it took 0.37 µM to reach half-maximal inhibition (IC50). Further, in data set [2], the “hits below 10 μM in HDAC isoform panel and secondary pharmacology safety panels” value was 4. Further, in the data set with COPD HBEC ALI cultures [3], the “CCL2 protein induction in basolateral supernatant” value is “reduced”, the “CXCL10 protein induction in basolateral supernatant” value is “reduced” and the “IL-6 protein induction in basolateral supernatant” value is recorded as “reduced”. Besides, the TEER entry in data set [4] is reported as “reversed this decrease”. The “activity on hERG” value on hERG was greater than 30 µM. The same substance gave a half-maximal inhibitory concentration (IC50) at HDAC7 of 6.51 µM. Besides, the “drug concentration after 18 hrs” value in data set [5] (10 μM spiked into ALI cell media in a test tube, 37 °C, LC-MSMS) was roughly 4 µM. In addition, in [5] (setting [8]), the “compound lost in the system” value is 60% and the “remaining after spike test” value is given as “approximately 40%”. Besides, in the data set on COPD HBEC ALI cultures [6] (TNF 20 ng/ml + ACY-1083, p<0.0001), the “intraepithelial and intercellular AB area” value is “reduced to the no-TNF level”. Moreover, the “percentage of goblet cells” value in the data set on COPD HBEC ALI cultures [6] (TNF 20 ng/ml + ACY-1083, vs no-TNF DMSO control or TNF DMSO culture) is reported as “increased but did not differ significantly”. Further, the “epithelial thickness variation (variance in height)” value with COPD HBEC ALI cultures [6] (TNF-challenged wells, four donors, p<0.001) is on record as “smaller”. The goblet cell percentage result in the data set on COPD HBEC ALI cultures [6] (only ACY-1083 vs no-TNF DMSO) is “No difference”. For the same substance, the half-maximal inhibitory concentration (IC50) against HDAC9 was 19.3 µM. Further, the IC50 in data set [7] is 0.03 to 0.1 µM.
